# Source: PMC9824695 (Molecules, 2023)
# Entries after “also recorded” stand apart in the source; their conditions may differ. Where two headings read alike, the source gives them in different places.
# What was measured:
# [1] = biological target: human mu opioid receptor (CHOhMOP) (Homo sapiens, UniProt P35372); test: cell-based
# [2] = 15% mouse brain homogenate; cited from earlier work
# male Kunming mice [3] = test: Naloxone-induced withdrawal response (jumping); settings: 10 mg/kg s.c.; method: 20, 40, 60, 80, 100, 100, 100 mg/kg every 8 h, naloxone 10 mg/kg
# male Kunming mice [4] = test: Rotarod test; assay type: in vivo, mouse (Kunming); settings: 10 mg/kg s.c.; compared with saline
# male Kunming mice [5] = test: Gastrointestinal transit test (charcoal meal); assay type: in vivo, mouse (Kunming); settings: 10 mg/kg s.c.; for GIT%: 15 min before charcoal meal, 30 min, p < 0.05, lower = stronger inhibition
# Experimental: The mice were fasted for 16 h with free access to water. Drugs were subcutaneously injected 15 min before the oral administration of a charcoal meal (an aqueous suspension of 5% charcoal and 10% gum arable). Thirty minutes after the oral administration, the animals were sacrificed. The farthest traveled distance by the charcoal meal (L1) and total length of the small intestine (L2) were measured. The GIT inhibition by analgesics was represented by GIT% = (L1/L2) × 100.
# male Kunming mice [6] = test: Acute hyperlocomotion test (open field); settings: 10 mg/kg s.c.; 150 min
# [7] = Blood-brain barrier penetration; settings: inferred from naloxone methiodide s.c. vs i.c.v. antagonism in mice
# [8] = biological target: human delta opioid receptor (CHOhDOP) (Homo sapiens, UniProt P41143); test: Calcium mobilization assay, CHOhDOP cells
# human delta opioid receptor (CHOhDOP), sequence (P41143 whole entry): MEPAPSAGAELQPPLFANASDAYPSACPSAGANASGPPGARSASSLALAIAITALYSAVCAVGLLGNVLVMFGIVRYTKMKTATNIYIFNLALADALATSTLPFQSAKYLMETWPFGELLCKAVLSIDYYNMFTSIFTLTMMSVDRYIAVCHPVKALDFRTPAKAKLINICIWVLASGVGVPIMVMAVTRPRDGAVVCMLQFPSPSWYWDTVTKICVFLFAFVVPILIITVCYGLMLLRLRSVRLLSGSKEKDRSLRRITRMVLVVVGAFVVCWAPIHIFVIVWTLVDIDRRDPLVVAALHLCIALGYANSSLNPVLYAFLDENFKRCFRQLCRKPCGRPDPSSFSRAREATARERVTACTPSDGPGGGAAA
# male Kunming mice [9] = test: Antinociceptive tolerance (tail-flick, 8 days); settings: 10 mg/kg s.c. once a day
# male Kunming mice [10] = test: Conditioned place preference; assay type: in vivo, mouse (Kunming); settings: 10 mg/kg s.c.
# Experimental: The conditioned place preference experiment is a classical model for evaluating dependence. The device consisted of three compartments. Two large compartments (20 × 20 × 20 cm) were connected by a narrower compartment (5 × 20 × 20 cm). The large compartments were visually and tactually distinct (white walls with rough floors and black walls with smooth floors). Before the unbiased experiment, the mice were allowed to move freely for 15 min to accommodate the apparatus. On the first day, the time the mice spent in each compartment was documented within 15 min. Over the next 3 days, the mice were subcutaneously administered drugs and were limited to one of the two large compartments. Approximately 6 h later, the mice were subcutaneously injected with saline and confined to the opposite compartment. On the fifth day, the mice moved freely for 15 min, and the time spent in the drug-associated preference compartment was recorded. The conditioned place preference score was calculated as: score = time spent in the drug-associated preference compartment on the fifth day − time spent in the same compartment on the first day.
# human sperm = test: Human sperm motility in vitro; settings: 0.0001, 0.001, 0.01, 0.1, 1, or 10 µM, 4-h incubation, 37 °C, n = 5
# MOR = settings: cited from earlier work
# opioid receptors = settings: cited from earlier work
# [11] = cited from earlier work
# KOR = settings: cited from earlier work
# Excerpt: Table 2 The actions of agonists and antagonists at opioid receptors. | column: Ki^(KOR) (nM)
# DOR = settings: cited from earlier work
# mice = system: mice; set-up: method as in 2 sources, ref 9 = [9]; PMID 9087409; doi:10.1038/386499a0; 9. Zadina J.E. Hackler L. Ge L.-J. Kastin A.J.J.N. A potent and selective endogenous agonist for the µ-opiate receptor Nature 1997 386 499 502 10.1038/386499a0 9087409 ||| ref 16 = [16]; PMID 31444977; doi:10.1111/bph.14848; 16. Xu B. Zhang M. Shi X. Zhang R. Chen D. Chen Y. Wang Z. Qiu Y. Zhang T. Xu K. The multifunctional peptide DN-9 produced peripherally acting antinociception in inflammatory and neuropathic pain via; settings: cited from earlier work
# male Kunming mice [12] = test: Radiant heat tail-flick test; assay type: in vivo, mouse (Kunming); settings: for ED50: Mus musculus, sc
# Excerpt: The radiant heat tail-flick test has been widely used as an acute pain model to examine the effects of analgesics. The mice were gently stabilized by hand, and the dorsal surface of the tail, 3 cm from the distal end, was placed on a radiant heat source. The cutoff time was set to 10 s to avoid tissue damage. Radiant heat intensity was adapted to engender a basal latency within 3–5 s in naive mice. Tail-flick latency was defined as the time when the mouse flicked its tail away from the radiant heat source. The data of antinociceptive effects for each animal after treatment were calculated as a percentage of the maximal possible effect (MPE%): MPE (%) = 100 × [(postdrug response − baseline response)/(cutoff response − baseline response)]. The MPE% from each animal was converted to an area under the curve (AUC).
# Statistical significance was set at p < 0.05.
# male Kunming mice [13] = test: Carrageenan-induced inflammatory pain; assay type: in vivo, mouse (Kunming); settings: s.c.
# male Kunming mice [14] = test: Formalin test; assay type: in vivo, mouse (Kunming); settings: phase I 0–5 min
# Experimental: The formalin test was conducted to explore a characteristic biphasic pain response. The better the analgesic effect in mice, the shorter the average licking/biting/shaking paw time. The mice were acclimated in a transparent plexiglass chamber (20 × 20 × 30 cm) for 15–20 min. First, the mice received a subcutaneous injection of drugs. Five minutes later, 20 μL of 5% formalin was administered by intraplantar injection to the right hind paw. The mice were immediately placed back in the chamber. Simultaneously, the time spent licking, biting, and shaking the injected paw was recorded within 0–5 and 15–30 min.
# male Kunming mice [15] = test: Acetic acid-induced writhing test; assay type: in vivo, mouse (Kunming); settings: 0.6% acetic acid i.p.
# Experimental: An acetic acid-induced writhing test was performed to investigate visceral pain [43]. The increase in intensity of drug analgesia would be accompanied by a decrease in the writhing number. The mice were acclimatized in a transparent acrylic chamber (20 × 20 × 30 cm) for 15–20 min. First, the mice were subcutaneously injected with drugs. Five minutes later, they were intraperitoneally injected with 0.6% acetic acid solution. Within 5–15 min after injecting acetic acid, the number of writhes was recorded. Writhe was defined as a contraction of the abdominal muscles and stretching of the hind limbs.
# human mu opioid receptor (CHOhMOP), sequence (P35372 whole entry): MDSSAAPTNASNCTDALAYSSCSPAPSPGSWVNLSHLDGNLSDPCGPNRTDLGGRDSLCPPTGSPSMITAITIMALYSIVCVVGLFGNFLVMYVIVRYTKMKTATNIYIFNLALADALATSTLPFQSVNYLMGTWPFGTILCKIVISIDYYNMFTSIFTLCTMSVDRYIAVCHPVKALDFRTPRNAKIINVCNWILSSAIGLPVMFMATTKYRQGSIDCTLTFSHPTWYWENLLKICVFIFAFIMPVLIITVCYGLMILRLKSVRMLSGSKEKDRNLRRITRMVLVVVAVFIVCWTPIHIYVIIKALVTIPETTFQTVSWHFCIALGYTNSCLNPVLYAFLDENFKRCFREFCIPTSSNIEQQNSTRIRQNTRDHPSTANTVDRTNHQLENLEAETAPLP
molecule,measurement,setting,value
"C[C@@H](NC(=O)[C@@H](N)Cc1ccc(O)cc1)C(=O)NCC(=O)N[C@@H](Cc1ccccc1)C(N)=O [HAGD, H-Tyr-D-AIa-GIy-Phe-NH2]",Emax,[1],103 ± 1.58%
same,EC50,"[1]; CHOhMOP, duplicate, repeated at least three times",81.7 nM
same,half-life in brain homogenate,[2],259.73 ± 41.01 min
same,withdrawal response,male Kunming mice [3],significant withdrawal response; also recorded: significant physical dependence
same,endurance time on rotating rod (in words),male Kunming mice [4],no significant difference in the endurance time
same,gastrointestinal transit (in words),male Kunming mice [5],significant delay compared with saline
same,GIT%,male Kunming mice [5],44.83 ± 4.14%
same,locomotor activity (in words),male Kunming mice [6],did not show an apparent effect on locomotion compared with saline
same,BBB permeability,[7],poor BBB permeability; also recorded: poor ability of HAGD to penetrate the BBB into the CNS
same,EC50,[8],2630 nM
same,Emax,[8]; read-out: Emax ± S.E.M.,110 ± 7.21%
same,antinociceptive tolerance,male Kunming mice [9],non-tolerance antinociception for 8 consecutive days; also recorded: non-tolerance antinociception for eight consecutive days
same,conditioned place preference (in words),male Kunming mice [10],did not induce a place preference change; also recorded: substantial difference in the conditioned place preference scores between the HAGD and morphine groups
same,"sperm progressive motility (PR), HAGD (in words)",human sperm,did not produce significant changes in sperm PR; also recorded: did not have a significant negative effect on human sperm motility
COC(=O)/C=C/C(=O)N[C@@H]1CC[C@@]2(O)[C@H]3Cc4ccc(O)c5c4[C@@]2(CCN3CC2CC2)[C@H]1O5 [β-funaltrexamine],Ki,MOR; binds covalently to MOR,0.3 nM
same,Antagonist (receptors),opioid receptors,"The inhibition constant (Ki) represented the agonist or antagonist affinity. ^a Drug dosage was in mg/kg (or µmol/kg) for each animal (subcutaneously). ^b β-funaltrexamine binds covalently to MOR. MOR, mu opioid receptor; DOR, delta opioid receptor; KOR, kappa opioid receptor. nM, nmol/L; also recorded: MOR ^b"
C=CC[N+]1(C)CC[C@]23c4c5ccc(O)c4O[C@H]2C(=O)CC[C@@]3(O)[C@H]1C5 (stereo partly shown) [naloxone methiodide],peripheral restriction,[11]; opioid receptor antagonist,peripherally restricted
same,Ki,KOR,204 nM
same,Ki,DOR,1010 nM
same,Ki,MOR,28.9 nM
same,Antagonist (receptors),opioid receptors,MOR DOR KOR
Tyr1-Pro2-Phe3-Phe4-NH2 [endomorphin-2],selectivity for MOR,MOR,highly selective for MORs
same,antinociception compared with morphine,mice,more potent and prolonged antinociception than morphine in mice
Tyr1-Pro2-Trp3-Phe4-NH2 [endomorphin-1],half-life in brain homogenate,[2],23.54 ± 0.25 min
same,BBB crossing,[11]; into the CNS as an analgesic,inability of endomorphin-1 to cross the blood–brain barrier (BBB)
same,selectivity for MOR,MOR,highly selective for MORs
same,antinociception compared with morphine,mice,more potent and prolonged antinociception than morphine in mice
CN1CC[C@]23c4c5ccc(O)c4O[C@H]2[C@@H](O)C=C[C@H]3[C@H]1C5 [morphine],ED50,"male Kunming mice [12]; mice, equivalent of the mg/kg value, read-out: antinociceptive ED50 (molar equivalent)",16.3 µmol/kg
same,ED50,male Kunming mice [12]; read-out: antinociceptive ED50,5.24 mg/kg
same,time of peak tail-flick latency,"male Kunming mice [12]; s.c., mice",30 min
same,withdrawal response,male Kunming mice [3],significant withdrawal response; also recorded: significant physical dependence
same,gastrointestinal transit (in words),male Kunming mice [5],significantly weakened the GIT and exhibited a greater inhibitory effect than HAGD
same,GIT%,male Kunming mice [5],24.11 ± 3.79%
same,locomotor activity (in words),male Kunming mice [6],enhanced the locomotor activity of mice and significantly increased the total distance traveled compared with saline or HAGD
same,duration of anti-allodynic activity,male Kunming mice [13]; carrageenan-treated mice,60 min
same,time of peak anti-allodynic effect,male Kunming mice [13]; post-injection,30 min
same,formalin test phase I response,"male Kunming mice [14]; 10 mg/kg s.c., 5% formalin intraplantar, mean ± S.E.M., p < 0.05, lower = better",67.36 ± 3.93
same,"formalin-induced nociceptive responses, phases I and II (in words)","male Kunming mice [14]; s.c., morphine 10 mg/kg, phase II 15–30 min",attenuated nociceptive responses in both phases I and II
same,average writhing number,"male Kunming mice [15]; 1 mg/kg s.c., 5–15 min, mean ± S.E.M., saline 34 ± 2.49",4.60 ± 2.43
same,inhibition of writhing response (in words),male Kunming mice [15]; s.c.,inhibited the writhing response
same,antinociceptive tolerance,male Kunming mice [9],decreased significantly from days 5 to 8; also recorded: produced antinociceptive tolerance in the tail-flick test
same,conditioned place preference (in words),male Kunming mice [10],significant place preference change
same,conditioned place preference score,male Kunming mice [10]; mean ± S.E.M.,140.50 ± 43.96
Oc1ccc2c3c1O[C@H]1c4[nH]c5ccccc5c4C[C@@]4(O)[C@@H](C2)N(CC2CC2)CC[C@]314 [naltrindole],Ki,DOR,0.02 nM
same,Antagonist (receptors),opioid receptors,DOR
Oc1ccc2c3c1O[C@H]1c4[nH]c5c(c4C[C@@]4(O)[C@@H](C2)N(CC2CC2)CC[C@]314)C[C@@]1(O)[C@H]2Cc3ccc(O)c4c3[C@@]1(CCN2CC1CC1)[C@H]5O4 [nor-binaltorphimine],Antagonist (receptors),opioid receptors,KOR
